The values below are quoted from earlier work in patent US20240082270A1 (priority 2021, published 2024).

Each structure is given as a SMILES string.

The subject of the data set is live SARS-CoV-2.

As to `C=C(C)[C@@H]1CCC(C)=C[C@H]1c1c(O)cc(CCCCC)c(C(=O)O)c1O` [CBDA], the effectiveness against variants entry is recorded as “equally effective”.

In the case of `CCCCCc1cc(O)c(C/C=C(\C)CCC=C(C)C)c(O)c1C(=O)O` [CBGA, cannabigerolic acid], the effectiveness against variants result is “equally effective”.
